The values below come from patent US20110275703A1, “SUBSTITUTED SPIROKETAL DERIVATIVES AND USE THEREOF AS THERAPEUTIC DRUG FOR DIABETES” (CHUGAI SEIYAKU KABUSHIKI KAISHA, priority 2007, published 2011).

The target of this assay is T1, human SGLT1 (Homo sapiens, UniProt P13866).
T1 construct: expressed in transfected cells; host or cells: CHO-K1
T1 sequence (P13866 1-664): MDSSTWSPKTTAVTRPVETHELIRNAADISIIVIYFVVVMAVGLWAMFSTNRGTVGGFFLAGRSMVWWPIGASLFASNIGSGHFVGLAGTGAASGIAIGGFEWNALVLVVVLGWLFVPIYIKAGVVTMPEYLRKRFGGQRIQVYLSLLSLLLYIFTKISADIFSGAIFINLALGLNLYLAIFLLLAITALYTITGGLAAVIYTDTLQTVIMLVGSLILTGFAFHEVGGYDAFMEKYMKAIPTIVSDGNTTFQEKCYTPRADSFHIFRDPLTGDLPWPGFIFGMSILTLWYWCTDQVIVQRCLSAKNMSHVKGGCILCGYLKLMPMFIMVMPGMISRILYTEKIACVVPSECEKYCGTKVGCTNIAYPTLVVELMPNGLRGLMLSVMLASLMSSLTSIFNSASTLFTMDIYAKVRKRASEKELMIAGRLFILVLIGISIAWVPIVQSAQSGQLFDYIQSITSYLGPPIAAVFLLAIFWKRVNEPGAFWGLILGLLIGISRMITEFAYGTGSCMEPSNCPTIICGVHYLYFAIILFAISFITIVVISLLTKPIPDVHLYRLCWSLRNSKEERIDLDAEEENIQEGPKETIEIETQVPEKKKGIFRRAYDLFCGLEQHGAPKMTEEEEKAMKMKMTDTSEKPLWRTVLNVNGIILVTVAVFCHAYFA
In words: Inhibitory activity against methyl-α-D-glucopyranoside uptake, CHO cells stably expressing human SGLT1. It counts as cell-based. To be noted: Table 2-2; read-out: hSGLT1 IC50 value. The text has this:
Evaluation of inhibitory activity against methyl-α-D-glucopyranoside uptake of human Na^+-glucose cotransporter (SGLT1 and SGLT2)
1) Construction of Human SGLT1 Expression Vector
Human SGLT1 cDNA was amplified by PCR with a cDNA library derived from human small intestine (Clontech) as a template, synthetic DNA primers and KOD+ DNA Polymerase (Toyobo Co., Ltd., Japan). The amplified cDNA was inserted into pcRII-Topo vector by using a Topo TA Cloning Dual Promoter kit (Invitrogen). E. coli competent cells (Invitrogen, TOP10) were transformed with the plasmid vector, cultured in LB medium containing ampicillin (50 mg/L) to grow ampicillin-resistant clones. The plasmid vector containing human SGLT1 cDNA was purified from the clone in a standard manner (see Maniatis et al., Molecular Cloning). Human SGLT1 cDNA added restriction enzyme recognition sites (Eco RI at 5′-end, Hind III at 3′-end) was amplified by PCR with the plasmid vector as a template, synthetic DNA primers containing an additional restriction enzyme recognition site, and KOD+ DNA Polymerase. This amplified cDNA was digested with Eco RI and Hind III and ligated into expression vector pcDNA3.1(−) (Invitrogen) digested with Eco RI and Hind III by a Rapid DNA Ligation kit (Roche Diagonostics). E. coli competent cells (Invitrogen, DH5α) were transformed with the ligated expression vector and grown in ampicillin-containing LB medium. Human SGLT1 expression vector was purified from the ampicillin-resistant clone in a standard manner.
3) Establishment of Cell Lines Stably Expressing Human SGLT1 or Human SGLT2
The human SGLT1 expression vector or the human SGLT2 expression vector was digested with the restriction enzyme Pvu I and transfected into CHO-Kl cells with FuGENE (Roche Diagonostics). After the transfection, the cells were cultured at 37° C. in the presence of 5% CO2 for about 3 weeks in DMEM medium (Gibco) containing penicillin (50 U/mL, SIGMA), streptomycin (50 mg/L, SIGMA), geneticin (200 mg/L, Nacalai Tesque, Inc., Japan) and 20% fetal bovine serum to obtain geneticin-resistant clones. Among these clones, clones stably expressing human SGLT1 or human SGLT2 were selected by the evaluating the sodium-dependent uptake activity of sugar (methyl-α-D-glucopyranoside).
4) Evaluation of Inhibitory Activity Against methyl-α-D-glucopyranoside uptake
Cell lines stably expressing human SGLT1 or human SGLT2 CHO were seeded in 96-well culture plates at a density of 30000 to 40000 cells/well and cultured for 4 to 6 days. The medium in these plates was removed and replaced by 150 μL/well pretreatment buffer (i.e., a buffer containing 140 mM choline chloride, 2 mM potassium chloride, 1 mM calcium chloride, 1 mM magnesium chloride, 10 mM 2-[4-(2-hydroxyethyl)-1-piperazinyl]ethanesulfonic acid and tris(hydroxymethyl)aminomethane, pH 7.4), and the plates were incubated at 37° C. for 20 minutes. The pretreatment buffer in the plates was removed, replaced by 50 μL/well fresh pretreatment buffer, and the plates were incubated at 37° C. for 20 minutes. Methyl-α-D-(U—^14C)glucopyranoside (6.3 mL, Amersham Pharmacia Biotech, 200 mCi/L) was added to and mixed with 100 mL buffer (i.e., a buffer containing 140 mM sodium chloride, 2 mM potassium chloride, 1 mM calcium chloride, 1 mM magnesium chloride, 1 mM methyl-α-D-glucopyranoside, 10 mM [4-(2-hydroxyethyl)-1-piperazinyl]ethanesulfonic acid and tris(hydroxymethyl)aminomethane, pH 7.4), which was used as uptake buffer. Test compounds were dissolved into uptake buffer and these test compound solutions were used for evaluating inhibitory activity. Uptake buffer without a test compound was used as a control solution. Moreover, for use in measuring baseline uptake in the absence of sodium, sodium-free solution was prepared in the same manner to contain 140 mM choline chloride instead of sodium chloride. […]
Usually IC50 stands for the concentration needed to halve the response being measured. On to `OC[C@H]1O[C@]2(OCc3cc(Cl)c(Cc4ccc5ccccc5c4)cc32)[C@H](O)[C@@H](O)[C@@H]1O` [Example 7, (1S,3′R,4′S,5′S,6′R)-5-chloro-3′,4′,5′,6′-tetrahydro-6′-(hydroxymethyl)-6-(2-naphthylmethyl)-spiro[isobenzofuran-1(3H),2′-[2H]pyran]-3′,4′,5′-triol], for which the half-maximal inhibitory concentration (IC50) worked out at 381 nM.
Consider `OC[C@H]1O[C@]2(OCc3cc(Cl)c(Cc4ccc(CCF)cc4)cc32)[C@H](O)[C@@H](O)[C@@H]1O` [Example 8, (1S,3′R,4′S,5′S,6′R)-5-chloro-6-[(4-(2-fluoroethyl)phenyl)methyl]-3′,4′,5′,6′-tetrahydro-6′-(hydroxymethyl)-spiro[isobenzofuran-1(3H),2′-[2H]pyran]-3′,4′,5′-triol], for which the IC50 turned out to be 355 nM.
In the case of `CC(C)c1ccc(Cc2cc3c(cc2Cl)CO[C@]32O[C@H](CO)[C@@H](O)[C@H](O)[C@H]2O)cc1` [Example 15, (1S,3′R,4′S,5′S,6′R)-5-chloro-3′,4′,5′,6′-tetrahydro-6′-(hydroxymethyl)-6-[(4-isopropylphenyl)methyl]-spiro[isobenzofuran-1(3H),2′-[2H]pyran]-3′,4′,5′-triol] it was 1010 nM.
In the case of `CCc1ccc(Cc2cc3c(cc2Cl)CO[C@]32O[C@H](CO)[C@@H](O)[C@H](O)[C@H]2O)cc1` [Example 1, (1S,3′R,4′S,5′S,6′R)-5-chloro-6-[(4-ethylphenyl)methyl]-3′,4′,5′,6′-tetrahydro-6′-(hydroxymethyl)-spiro[isobenzofuran-1(3H),2′-[2H]pyran]-3′,4′,5′-triol] it was 201 nM; in that of `CCCc1ccc(Cc2cc3c(cc2Cl)CO[C@]32O[C@H](CO)[C@@H](O)[C@H](O)[C@H]2O)cc1` [Example 9, (1S,3′R,4′S,5′S,6′R)-5-chloro-3′,4′,5′,6′-tetrahydro-6′-(hydroxymethyl)-6-[(4-propylphenyl)methyl]-spiro[isobenzofuran-1(3H),2′-[2H]pyran]-3′,4′,5′-triol], 1360 nM.
On to `Cc1cc2c(cc1Cc1ccc(C(C)C)cc1)[C@]1(OC2)O[C@H](CO)[C@@H](O)[C@H](O)[C@H]1O` [Example 21, (1S,3′R,4′S,5′S,6′R)-3′,4′,5′,6′-tetrahydro-6′-(hydroxymethyl)-6-[(4-isopropylphenyl)methyl]-5-methyl-spiro[isobenzofuran-1(3H),2′-[2H]pyran]-3′,4′,5′-triol], for which the IC50 turned out to be 682 nM.
Turning to `CCOc1ccc(Cc2cc3c(cc2Cl)CO[C@]32O[C@H](CO)[C@@H](O)[C@H](O)[C@H]2O)cc1` [Example 5, (1S,3′R,4′S,5′S,6′R)-5-chloro-6-[(4-ethoxyphenyl)methyl]-3′,4′,5′,6′-tetrahydro-6′-(hydroxymethyl)-spiro[isobenzofuran-1(3H),2′-[2H]pyran]-3′,4′,5′-triol], the IC50 was 425 nM.
Consider `CCc1ccc(Cc2cc3c(cc2C)CO[C@]32O[C@H](CO)[C@@H](O)[C@H](O)[C@H]2O)cc1` [Comparative Compound 1, 1,1-anhydro-1-C-[5-(4-ethylphenyl)methyl-2-(hydroxymethyl)-4-methylphenyl]-β-glucopyranose, reference compound], for which the IC50 was 132 nM.
